Assay results from patent publication US8609836B2, “4-aryl-2-anilino-pyrimidines” (Janssen Pharmaceutica NV, priority 2008, dated 2013).

Assays:
[1] = target: AuroraB (h) (Homo sapiens, UniProt Q96GD4); experiment: Aurora-B human kinase inhibition, SPA; assay type: biochemical; settings: read-out: AuroraB pIC50 (converted)
Summary of the method: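 SPA with biotinylated peptide (3 μM) in 60 mM Hepes pH 7.5, Mg/Mn 3 mM each, 0.5 μM ATP plus [γ-33P]ATP, AuroraB at 0.5 μg/ml. The reaction runs 60 min at room temperature and is stopped with EDTA and streptavidin PVT beads. 33P-substrate is read by scintillation imaging.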

[2] = target: CDK1/CyclinB (h) (Homo sapiens, UniProt P06493); experiment: CDK1/CyclinB human kinase inhibition, Invitrogen's FRET assay (Z'lyte); assay type: biochemical; settings: read-out: CDK1 pIC50 (converted)
Summary of the method: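 Z'lyte FRET assay: human CDK1/CyclinB (0.2 μg/ml) with 2 μM Ser/Thr peptide 12 and 10 μM ATP in 50 mM Hepes pH 7.5, MgCl2, EGTA, Brij-35, 60 min at room temperature. Protease development 60 min, then emission ratio 460/538 nm read with excitation at 390 nm.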

[3] = target: PLK4 (h) (Homo sapiens, UniProt O00444); experiment: PLK-4 human kinase inhibition, scintillation proximity assay (SPA); assay type: biochemical; settings: read-out: PLK4 pIC50 (converted)
[4] = system: MDA-MB-231; experiment: Cellular proliferation assay (Alamar blue), MDA-MB-231; assay type: cell-based; settings: Homo sapiens, 10% FCS, 72 hours with compound, Alamar blue 24 h, read-out: MDA/MB231 (cellular proliferation assay, Table 4) (converted)
Summary of the method: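 Proliferation in 10% FCS over a 72 h compound treatment, read as viable cell number by Alamar blue fluorescence and calculated against untreated control cells. Dye time varied by line: 6 h U87-MG, 4 h HCT-116, 24 h A2780 and MDA-MB-231.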

CDK1/CyclinB (h), sequence (P06493 whole entry): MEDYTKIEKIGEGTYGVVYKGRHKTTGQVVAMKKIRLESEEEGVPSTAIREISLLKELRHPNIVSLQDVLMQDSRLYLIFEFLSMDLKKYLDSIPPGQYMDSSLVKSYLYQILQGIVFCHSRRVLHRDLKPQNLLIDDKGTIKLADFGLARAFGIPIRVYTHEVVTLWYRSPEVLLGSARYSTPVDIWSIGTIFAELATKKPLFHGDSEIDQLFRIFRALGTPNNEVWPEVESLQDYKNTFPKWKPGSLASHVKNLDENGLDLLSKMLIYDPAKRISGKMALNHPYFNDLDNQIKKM
CDK1/CyclinB (h), sequence (P14635 whole entry partner): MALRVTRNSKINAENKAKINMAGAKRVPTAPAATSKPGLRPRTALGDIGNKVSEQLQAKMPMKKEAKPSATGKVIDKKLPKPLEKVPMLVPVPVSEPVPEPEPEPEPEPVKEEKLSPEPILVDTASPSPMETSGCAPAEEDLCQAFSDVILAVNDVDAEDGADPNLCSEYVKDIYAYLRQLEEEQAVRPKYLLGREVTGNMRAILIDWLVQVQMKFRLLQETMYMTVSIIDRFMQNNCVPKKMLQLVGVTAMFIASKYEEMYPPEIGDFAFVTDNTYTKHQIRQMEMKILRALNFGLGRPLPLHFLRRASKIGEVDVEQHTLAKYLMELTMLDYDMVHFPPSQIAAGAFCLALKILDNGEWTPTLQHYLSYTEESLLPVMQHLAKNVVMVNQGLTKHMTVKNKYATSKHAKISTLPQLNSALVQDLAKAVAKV
PLK4 (h), sequence (O00444 whole entry): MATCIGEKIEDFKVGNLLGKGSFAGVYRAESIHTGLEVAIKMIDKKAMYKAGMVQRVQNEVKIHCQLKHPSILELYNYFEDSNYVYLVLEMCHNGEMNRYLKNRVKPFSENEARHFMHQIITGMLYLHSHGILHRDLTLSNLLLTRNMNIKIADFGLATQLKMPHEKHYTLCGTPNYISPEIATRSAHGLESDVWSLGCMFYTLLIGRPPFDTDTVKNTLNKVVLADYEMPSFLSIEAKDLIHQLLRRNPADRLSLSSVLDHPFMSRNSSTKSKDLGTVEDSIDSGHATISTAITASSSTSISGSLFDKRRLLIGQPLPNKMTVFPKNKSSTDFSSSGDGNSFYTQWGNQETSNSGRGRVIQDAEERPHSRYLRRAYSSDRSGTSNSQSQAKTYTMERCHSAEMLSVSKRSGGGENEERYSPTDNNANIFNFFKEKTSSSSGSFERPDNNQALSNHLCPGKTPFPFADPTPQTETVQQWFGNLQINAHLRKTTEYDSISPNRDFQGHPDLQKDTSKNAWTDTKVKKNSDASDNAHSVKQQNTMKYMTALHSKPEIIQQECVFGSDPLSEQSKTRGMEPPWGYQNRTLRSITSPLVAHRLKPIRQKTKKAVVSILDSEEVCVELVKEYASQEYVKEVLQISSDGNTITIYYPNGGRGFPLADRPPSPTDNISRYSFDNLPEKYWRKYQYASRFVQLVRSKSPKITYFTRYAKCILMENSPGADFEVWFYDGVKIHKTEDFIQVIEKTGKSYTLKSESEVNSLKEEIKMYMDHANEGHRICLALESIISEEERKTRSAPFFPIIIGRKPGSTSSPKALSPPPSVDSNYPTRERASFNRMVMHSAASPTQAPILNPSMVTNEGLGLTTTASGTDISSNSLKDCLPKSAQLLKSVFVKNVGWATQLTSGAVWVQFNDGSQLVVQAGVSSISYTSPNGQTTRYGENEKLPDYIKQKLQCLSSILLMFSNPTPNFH
AuroraB (h), sequence (Q96GD4 whole entry): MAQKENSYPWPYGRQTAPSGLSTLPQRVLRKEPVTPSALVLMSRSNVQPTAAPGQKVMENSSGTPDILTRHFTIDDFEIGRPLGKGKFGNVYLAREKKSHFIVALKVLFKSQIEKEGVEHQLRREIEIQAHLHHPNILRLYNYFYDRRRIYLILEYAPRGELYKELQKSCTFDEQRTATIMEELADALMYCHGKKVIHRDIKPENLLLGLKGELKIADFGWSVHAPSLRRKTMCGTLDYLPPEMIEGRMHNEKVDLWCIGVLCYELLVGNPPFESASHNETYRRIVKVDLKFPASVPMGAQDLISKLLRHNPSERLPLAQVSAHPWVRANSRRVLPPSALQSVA

Row | SMILES | IC50 [1] | IC50 [2] | IC50 [3] | IC50 [4]
1 | O=C1NCc2cccc(c2)-c2ccnc(n2)Nc2ccc(N3CCOCC3)c(c2)CN2CCC[C@@H]12 [Compound 1] | 4.37 µM | 4.17 µM | 0.0479 µM | > 10 µM
2 | COc1ccc2cc1CN1CCC(CC1)C(=O)N(C)CCN(C)c1ccc(cn1)-c1ccnc(n1)N2 [Compound 4] | > 10 µM | > 10 µM | 2.4 µM | > 10 µM
3 | C[C@@H]1NCc2cc(ccc2N2CCOCC2)Nc2nccc(n2)-c2ccc(cc2)OCCCNC1=O [Compound 5] | > 10 µM | > 10 µM | 0.162 µM | > 10 µM
4 | O=C1NCCOc2ccc(cc2)-c2ccnc(n2)Nc2ccc(N3CCOCC3)c(c2)CN2CCC1CC2 [Compound 6] | 1.66 µM | 0.195 µM | 0.316 µM | 0.363 µM
5 | O=C1NCCCOc2ccc(cc2)-c2ccnc(n2)Nc2ccc(N3CCOCC3)c(c2)CN2CCC[C@@H]12 [Compound 7] | 6.31 µM | 3.47 µM | 0.316 µM | > 10 µM
6 | O=C1CN2CCN(CC2)Cc2cc(ccc2N2CCOCC2)Nc2nccc(n2)-c2ccc(cc2)OCCN1 [Compound 9] | > 10 µM | > 10 µM | 0.417 µM | > 10 µM
7 | CN1CCCNC(=O)[C@H](CO)NCc2cc(cc(N3CCOCC3)c2)Nc2nccc(n2)-c2ccc(cc2)C1 [Compound 10] | 9.33 µM | > 10 µM | 0.513 µM | > 10 µM
8 | COc1ccc2cc1CN1CCN(CC1)CC(=O)N(C)CCN(C)c1ccc(cn1)-c1ccnc(n1)N2 [Compound 14] | > 10 µM | > 3.02 µM | 1.35 µM | > 10 µM
9 | CN1CCCNC(=O)[C@@H]2CCCN2Cc2cc(cc(N3CCOCC3)c2)Nc2nccc(n2)-c2ccc(cc2)C1 [Compound 16] | > 10 µM | > 10 µM | 0.617 µM | > 10 µM
10 | O=C1NCc2cccc(c2)-c2ccnc(n2)Nc2cc(CN3CCOCC3)cc(c2)CN2CCC[C@@H]12 [Compound 22] | 10.2 µM | 0.251 µM | 0.0692 µM | 1.7 µM
11 | CN(C)C(=O)c1ccc2cc1CN1CCC[C@H]1C(=O)NCc1cccc(c1)-c1ccnc(n1)N2 [Compound 24] | > 10 µM | > 10 µM | 0.0776 µM | > 10 µM
12 | O=C1NCc2cccc(c2)-c2ccnc(n2)Nc2cc(CNC3CCOCC3)cc(c2)CN2CCC[C@@H]12 [Compound 29] | > 10 µM | 0.676 µM | 0.162 µM | 2.09 µM
13 | CN(C)Cc1cc2cc(c1)Nc1nccc(n1)-c1cccc(c1)CNC(=O)[C@@H]1CCCN1C2 [Compound 30] | > 10 µM | 0.269 µM | 0.162 µM | 0.257 µM
14 | CN(C)CCNCc1cc2cc(c1)Nc1nccc(n1)-c1cccc(c1)CNC(=O)[C@@H]1CCCN1C2 [Compound 31] | > 10 µM | 0.933 µM | 0.166 µM | 1.55 µM
15 | COCCNCc1cc2cc(c1)Nc1nccc(n1)-c1cccc(c1)CNC(=O)[C@@H]1CCCN1C2 [Compound 33] | 8.32 µM | 0.537 µM | 0.178 µM | 0.832 µM
16 | O=C1NCc2cccc(c2)-c2ccnc(n2)Nc2cc(CNC3CCCCC3)cc(c2)CN2CCC[C@@H]12 [Compound 36] | 8.13 µM | 0.457 µM | 0.219 µM | 1.82 µM
17 | COCCNC(=O)c1ccc2cc1CN1CCC[C@H]1C(=O)NCc1cccc(c1)-c1ccnc(n1)N2 [Compound 40] | > 10 µM | 3.09 µM | 0.288 µM | > 10 µM
18 | O=C(NC1CCCCC1)c1ccc2cc1CN1CCC[C@H]1C(=O)NCc1cccc(c1)-c1ccnc(n1)N2 [Compound 41] | > 10 µM | > 10 µM | 0.347 µM | > 10 µM
19 | CN(C)CCNC(=O)c1ccc2cc1CN1CCC[C@H]1C(=O)NCc1cccc(c1)-c1ccnc(n1)N2 [Compound 42] | > 10 µM | ~1.35 µM | 0.355 µM | 1.91 µM
20 | O=C(NC1CCOCC1)c1ccc2cc1CN1CCC[C@H]1C(=O)NCc1cccc(c1)-c1ccnc(n1)N2 [Compound 46] | > 10 µM | > 10 µM | 0.427 µM | > 10 µM
21 | O=C1NCCCc2cc(ccn2)-c2ccnc(n2)Nc2ccc(N3CCOCC3)c(c2)CN2CCCC12 (stereo not drawn) [Compound 48] | > 10 µM | > 10 µM | 0.661 µM | > 10 µM

Row | SMILES | IC50 [1] | IC50 [2] | IC50 [3] | IC50 [4]
22 | CN1CCNC(=O)C2CCN(CC2)Cc2cc(Br)cc(c2)Nc2nccc(n2)-c2ccc(cc2)C1 [Compound 60] | 6.31 µM | > 10 µM | 0.537 µM | > 10 µM
23 | CC(C)Nc1cc2cc(c1)Nc1nccc(n1)-c1ccc(cc1)CN(C)CCNC(=O)C1CCN(CC1)C2 [Compound 61] | 8.32 µM | > 10 µM | 0.724 µM | > 10 µM
24 | CN1CCNC(=O)C2CCN(CC2)Cc2cc(cc(N3CCOCC3)c2)Nc2nccc(n2)-c2ccc(cc2)C1 [Compound 68] | > 10 µM | > 10 µM | 1.55 µM | > 10 µM
25 | COc1ccc2cc1CN(C)CCCNC(=O)C1CCN(CC1)Cc1cc(cc(NC(C)C)c1)Nc1nccc-2n1 [Compound 70] | 6.03 µM | > 10 µM | 1.58 µM | > 10 µM
26 | CN1CCCNC(=O)C2CCN(CC2)Cc2cc(cc(N3CCOCC3)c2)Nc2nccc(n2)-c2ccc(cc2)C1 [Compound 72] | > 10 µM | > 10 µM | 2.34 µM | > 10 µM
27 | COc1ccc2cc1CN(C)CCNC(=O)C1CCN(CC1)Cc1cc(cc(NC(C)C)c1)Nc1nccc-2n1 [Compound 75] | > 10 µM | > 10 µM | 3.09 µM | > 10 µM
28 | COc1ccc2cc1CN(C)CCCNC(=O)C1CCN(CC1)Cc1cc(Br)cc(c1)Nc1nccc-2n1 [Compound 76] | 5.5 µM | > 10 µM | 3.24 µM | 6.76 µM
29 | COc1ccc2cc1CN(C)CCNC(=O)C1CCN(CC1)Cc1cc(cc(N3CCOCC3)c1)Nc1nccc-2n1 [Compound 77] | > 10 µM | > 10 µM | 4.79 µM | > 10 µM
30 | CN1CCCNC(=O)C2CCN(CC2)Cc2cccc(c2)Nc2nccc(n2)-c2ccc(cc2)C1 [Compound 78] | > 10 µM | > 10 µM | 4.9 µM | 7.59 µM
31 | COc1ccc2cc1CN(C)CCCNC(=O)C1CCN(CC1)Cc1cc(cc(N3CCOCC3)c1)Nc1nccc-2n1 [Compound 80] | > 10 µM | > 10 µM | 5.37 µM | > 10 µM
32 | COc1ccc2cc1CN(C)CCCNC(=O)C1CCN(CC1)Cc1cccc(c1)Nc1nccc-2n1 [Compound 81] | > 10 µM | > 10 µM | 5.5 µM | > 10 µM
33 | CN1CCNC(=O)C2CCN(CC2)Cc2cccc(c2)Nc2nccc(n2)-c2ccc(cc2)C1 [Compound 82] | > 10 µM | > 10 µM | 6.31 µM | > 10 µM
34 | COc1ccc2cc1CN(C)CCNC(=O)C1CCN(CC1)Cc1cccc(c1)Nc1nccc-2n1 [Compound 83] | > 10 µM | > 10 µM | > 10 µM | > 10 µM
35 | O=C1NCCNc2cc(ccn2)-c2ccnc(n2)Nc2ccc(N3CCOCC3)c(c2)CN2CCC1CC2 [Compound 84] | 7.08 µM | > 10 µM | 5.37 µM | > 10 µM
36 | C[C@H]1NCc2cc(ccc2N2CCOCC2)Nc2nccc(n2)-c2ccc(cc2)OCCCNC1=O [Compound 86] | 10.5 µM | > 10 µM | 0.209 µM | > 10 µM
37 | C[C@H]1NCc2cc(ccc2N2CCOCC2)Nc2nccc(n2)-c2cccc(c2)OCCCNC1=O [Compound 87] | > 10 µM | 7.08 µM | 0.407 µM | 8.13 µM
38 | C[C@@H]1NCc2cc(ccc2N2CCOCC2)Nc2nccc(n2)-c2cccc(c2)OCCCNC1=O [Compound 88] | 6.46 µM | 4.79 µM | 0.447 µM | 6.76 µM
39 | O=C1NCCCOc2cccc(c2)-c2ccnc(n2)Nc2ccc(N3CCOCC3)c(c2)CN[C@H]1CO [Compound 89] | > 10 µM | > 10 µM | 0.525 µM | > 10 µM
40 | O=C1NCCCOc2cccc(c2)-c2ccnc(n2)Nc2ccc(N3CCOCC3)c(c2)CN[C@H]1Cc1ccccc1 [Compound 91] | > 10 µM | > 10 µM | 1.41 µM | > 10 µM
41 | O=C1NCCCOc2ccc(cc2)-c2ccnc(n2)Nc2ccc(N3CCOCC3)c(c2)CN2CCC1CC2 [Compound 92] | > 10 µM | 1.02 µM | 0.398 µM | 2.51 µM
42 | O=C1NCCCOc2cccc(c2)-c2ccnc(n2)Nc2ccc(N3CCOCC3)c(c2)CN2CCC[C@@H]12 [Compound 96] | > 10 µM | > 10 µM | 0.398 µM | > 10 µM
